Usually IC50 stands for the concentration at which inhibition is half-maximal. A low value points to greater potency in that assay.

The target of this assay is Acetyl-coenzyme A synthetase, cytoplasmic (Homo sapiens, UniProt Q9NR19). The assay is described as follows: ACSS2 Cell-Free Activity Assay.
Sequence of Acetyl-coenzyme A synthetase, cytoplasmic (Q9NR19 whole entry): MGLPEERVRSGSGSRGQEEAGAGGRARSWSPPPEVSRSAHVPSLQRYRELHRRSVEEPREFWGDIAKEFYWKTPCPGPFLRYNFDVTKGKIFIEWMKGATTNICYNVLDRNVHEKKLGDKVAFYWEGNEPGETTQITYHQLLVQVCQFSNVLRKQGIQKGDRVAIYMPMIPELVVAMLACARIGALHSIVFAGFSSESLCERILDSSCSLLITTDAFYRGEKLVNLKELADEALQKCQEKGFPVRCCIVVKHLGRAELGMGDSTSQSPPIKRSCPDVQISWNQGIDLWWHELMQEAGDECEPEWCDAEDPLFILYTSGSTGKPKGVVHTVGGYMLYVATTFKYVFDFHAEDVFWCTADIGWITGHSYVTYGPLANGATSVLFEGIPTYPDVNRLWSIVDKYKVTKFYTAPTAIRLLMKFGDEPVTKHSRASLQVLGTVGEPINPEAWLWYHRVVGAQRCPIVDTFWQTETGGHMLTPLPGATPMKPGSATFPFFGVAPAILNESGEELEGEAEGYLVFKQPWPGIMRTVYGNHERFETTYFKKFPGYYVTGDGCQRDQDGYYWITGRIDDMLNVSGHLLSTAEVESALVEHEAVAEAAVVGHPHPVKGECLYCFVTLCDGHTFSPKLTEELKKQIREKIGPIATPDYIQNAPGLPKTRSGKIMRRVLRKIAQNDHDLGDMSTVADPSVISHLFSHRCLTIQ

Description: At the end of the reaction, Biomol Green was added for 30 minutes at RT and the activity was measured by reading the absorbance at 620 nm.

For `CCC(F)(F)c1cccc(NC(=O)c2nc(-c3ccc4cc[nH]c4c3)oc2C)c1` [US12441689, Compound 106], the IC50 is over 100 nM.

For the origin of these results see BindingDB's records for patent US12441689 (Epivario, 2025).
